Reference: paper PMC7486940, “Pre-symptomatic Caspase-1 inhibitor delays cognitive decline in a mouse model of Alzheimer disease and aging” (Nature Communications, 2020)

Test system: GFAP
Experiment: GFAP astrogliosis (western blot, immunostaining)
Type: in vivo, mouse
Method: VX-765 (Adooq Bioscience, Irvine, CA, USA) was dissolved 5 mg • ml^−1 in 20% cremophor in dH2O[60] (Sigma-Aldrich, ON, Canada) and administered IPWT and J20 mice received three injections per week of either 50 mg • kg^−1 VX-765 or 20% cremophor vehicle for 4 weeks between 2 and 3 months of age. Mice were longitudinally followed starting 4 weeks after the last injection [4-week washout (WO)], then every other month at 12- and 20-week WO (6 and 8 months of age, respectively). Intermediate 8- and 16-week WO periods were also looked at with a smaller number of mice. After each WO period, animals were randomly chosen, independent of behavioural performance, for sacrifice and assigned to either histological or biochemical analysis (Fig. 2a).
Mice for immunohistochemistry were isoflurane anesthetized and perfused with ice-cold 4% paraformaldehyde in 0.1 M PBS (Sigma-Aldrich). Brains were post-fixed overnight in 10% neutral-buffered formalin (ThermoFisher Scientific, ON, Canada) and transferred to 70% ethanol for paraffin embedding and sectioning at 4 μm. Tissue slides underwent heat-induced antigen retrieval with citrate or EDTA buffer. […]
Iba1-positive microglia were quantified using a modified version of an area-specific counting frame. […] Microglial activation level was determined based on morphological measurements[19],[41]. Aβ1-40 and GFAP immunostaining density was measured across four sections using ImageJ software (NIH, Bethesda, MD, USA). Quantification was blinded to treatment and genotype.
Twenty to sixty micrograms of protein or 16 μl of precipitated protein from culture medium were separated on SDS-PAGE or 4–12% NuPAGE Bis-Tris gels (Invitrogen, Carlsbad, CA, USA) with MES buffer (Invitrogen) and transferred onto PVDF membranes (Bio-Rad) according to the manufacturer’s instructions. […] Protein levels were normalized to β-actin and expressed as a percentage relative to the vehicle-treated WT group, except for APP which was compared to the vehicle-treated J20 group. […]

SMILES: CCO[C@@H]1OC(=O)C[C@@H]1NC(=O)[C@@H]1CCCN1C(=O)[C@@H](NC(=O)c1ccc(N)c(Cl)c1)C(C)(C)C [VX-765, (S)-1-((S)-2-{[1-(4-amino-3-chloro-phenyl)-methanoyl]-amino}-3,3-dimethyl-butanoyl)-pyrrolidine-2-carboxylic acid ((2R,3S)-2-ethoxy-5-oxo-tetrahydro-furan-3-yl)-amide]
- delay of GFAP astrogliosis (J20): 3 months
- immunopositive GFAP astrogliosis (J20 hippocampus and cortex): prevented astrogliosis until 8- and 12-week WO in the hippocampus and cortex, respectively
- hippocampal GFAP levels (western blot) (J20 hippocampus, 4- and 20-week WO): normalized with VX-765 treatment only at 20-week WO
